# In ChEMBL document CHEMBL2074486, “Identification of basic residues involved in drug export function of human multidrug resistance-associated protein 2” (J Biol Chem, 2000):
# Assays:
# [1] = molecular target: T1, ATP-binding cassette sub-family C member 2 (Homo sapiens, UniProt Q92887); assay: TP_TRANSPORTER: excretion in MRP2-expressing COS-7 cells; type: functional, cell-based; conditions: monkey
# [2] = molecular target: T1, ATP-binding cassette sub-family C member 2; assay: TP_TRANSPORTER: excretion in MRP2-expressing CHO cells; type: functional, cell-based; conditions: hamster
# T1 sequence (Q92887 whole entry): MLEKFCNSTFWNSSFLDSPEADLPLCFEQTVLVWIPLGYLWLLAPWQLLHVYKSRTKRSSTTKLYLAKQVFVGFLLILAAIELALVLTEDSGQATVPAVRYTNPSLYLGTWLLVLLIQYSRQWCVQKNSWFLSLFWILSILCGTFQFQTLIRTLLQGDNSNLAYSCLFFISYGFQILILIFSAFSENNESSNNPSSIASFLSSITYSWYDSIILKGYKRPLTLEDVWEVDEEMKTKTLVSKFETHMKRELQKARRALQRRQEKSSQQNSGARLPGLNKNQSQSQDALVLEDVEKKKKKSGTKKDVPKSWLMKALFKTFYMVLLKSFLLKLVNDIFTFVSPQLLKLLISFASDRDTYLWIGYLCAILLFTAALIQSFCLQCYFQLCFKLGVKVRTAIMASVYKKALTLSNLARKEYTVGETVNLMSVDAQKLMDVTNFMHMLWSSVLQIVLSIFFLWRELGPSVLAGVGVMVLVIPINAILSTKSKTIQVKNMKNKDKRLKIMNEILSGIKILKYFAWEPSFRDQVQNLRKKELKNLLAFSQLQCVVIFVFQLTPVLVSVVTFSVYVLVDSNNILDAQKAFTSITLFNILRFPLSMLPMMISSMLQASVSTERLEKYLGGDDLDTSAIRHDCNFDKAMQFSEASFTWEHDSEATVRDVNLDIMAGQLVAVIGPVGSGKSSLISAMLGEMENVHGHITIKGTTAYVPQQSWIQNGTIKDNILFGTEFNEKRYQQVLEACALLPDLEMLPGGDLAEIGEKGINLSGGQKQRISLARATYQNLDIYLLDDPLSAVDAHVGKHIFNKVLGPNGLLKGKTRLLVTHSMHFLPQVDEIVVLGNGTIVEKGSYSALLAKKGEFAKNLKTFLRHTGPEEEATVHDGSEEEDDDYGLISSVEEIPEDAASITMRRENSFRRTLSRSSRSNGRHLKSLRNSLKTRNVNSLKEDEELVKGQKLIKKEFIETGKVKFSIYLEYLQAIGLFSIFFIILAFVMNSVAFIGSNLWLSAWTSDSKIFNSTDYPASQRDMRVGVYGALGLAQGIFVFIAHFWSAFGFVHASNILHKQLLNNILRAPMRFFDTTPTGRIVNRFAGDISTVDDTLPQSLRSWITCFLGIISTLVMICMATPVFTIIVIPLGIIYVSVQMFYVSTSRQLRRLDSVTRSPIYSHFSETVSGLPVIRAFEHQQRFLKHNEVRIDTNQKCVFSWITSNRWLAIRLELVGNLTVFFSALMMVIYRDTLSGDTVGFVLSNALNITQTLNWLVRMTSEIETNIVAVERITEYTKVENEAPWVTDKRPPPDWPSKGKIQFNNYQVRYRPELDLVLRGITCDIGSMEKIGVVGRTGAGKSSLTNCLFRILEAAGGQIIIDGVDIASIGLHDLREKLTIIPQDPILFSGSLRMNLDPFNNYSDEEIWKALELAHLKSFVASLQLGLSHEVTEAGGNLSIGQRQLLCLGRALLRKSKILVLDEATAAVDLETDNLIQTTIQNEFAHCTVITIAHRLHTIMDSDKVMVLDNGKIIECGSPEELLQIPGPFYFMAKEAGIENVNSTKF
Activity [1],Activity [2],SMILES
substrate [+],substrate [+],N[C@@H](CCC(=O)N[C@H](CSc1cc(=O)n2c(=O)ccn12)C(=O)NCC(=O)O)C(=O)O
substrate [+],substrate [+],N[C@@H](CCC(=O)N[C@H](CSCc1ccc(-c2c3ccc(=O)cc-3oc3cc(O)ccc23)c(C(=O)O)c1)C(=O)NCC(=O)O)C(=O)O [Glutathione-methylfluorescein]
